Measured values reported in patent US20150183827A1, “CELL PENETRATING PEPTIDES & METHODS OF IDENTIFYING CELL PENETRATING PEPTIDES” (Hoffmann-La Roche Inc., priority 2012, published 2015).
* marks the point of attachment. FITC = O=C1OC2(c3ccc(O)cc3Oc3cc(O)ccc32)c2ccc(NC(=S)*)cc21; Ahx = NCCCCCC(=O)O

Tested on: H460 cells
Test: cell penetration of FITC-tagged peptides in H460 cells (confocal fluorescence imaging)
Format: cell-based
Settings: 3 μm, 2 hours, FIGS. 3A-3B
Method: The peptides of Examples 1-19 were tested for cell penetration in H460 and HeLa cell lines as follows.
The H460 cell line and HeLa (ATCC) were maintained in growth media then passaged every 2-3 days. Growth media for H460 was RPMI 1640, 10% fetal calf serum, sodium pyruvate, antibiotics and glutamine (GIBCO). Growth media for HeLa cells was DMEM supplemented with 10% heat-inactivated fetal calf serum, antibiotics and glutamine (GIBCO).
Cells were plated onto Whatman glass-bottom 96-well plates or Perkin Elmer glass-bottom 96-well plates and cultured overnight. Peptide stocks were prepared in DMSO and were diluted in cell growth media for cellular uptake studies. After 2 and 24 h of peptide incubation at various concentrations, media was removed followed by three washes of acidic saline. Formaldehyde fixation, with or without Hoechst 33342 dye solution (to stain nuclei), was followed by PBS washes. Plates were imaged on the Operetta High Content Imaging system in confocal fluorescence mode using the 40×water immersion high NA objective.

Substance | cell penetration as determined by the fluorescence
FITC-6Ahx-KVFSPKKKMEFFLLF-NH2 ({FITC-Ahx}-KVFSPKKKMEFFLLF-NH2; SMILES CSCC[C@H](NC(=O)[C@H](CCCCN)NC(=O)[C@H](CCCCN)NC(=O)[C@H](CCCCN)NC(=O)[C@@H]1CCCN1C(=O)[C@H](CO)NC(=O)[C@H](Cc1ccccc1)NC(=O)[C@@H](NC(=O)[C@H](CCCCN)NC(=O)CCCCCNC(=S)Nc1ccc2c(c1)C(=O)OC21c2ccc(O)cc2Oc2cc(O)ccc21)C(C)C)C(=O)N[C@@H](CCC(=O)O)C(=O)N[C@@H](Cc1ccccc1)C(=O)N[C@@H](Cc1ccccc1)C(=O)N[C@@H](CC(C)C)C(=O)N[C@@H](CC(C)C)C(=O)N[C@@H](Cc1ccccc1)C(N)=O) [Example 12] | low but still cell penetrating
FITC-6Ahx-LLPQWPRIRHIKLLR-NH2 ({FITC-Ahx}-LLPQWPRIRHIKLLR-NH2; SMILES CC[C@H](C)[C@H](NC(=O)[C@H](Cc1c[nH]cn1)NC(=O)[C@H](CCCNC(=N)N)NC(=O)[C@@H](NC(=O)[C@H](CCCNC(=N)N)NC(=O)[C@@H]1CCCN1C(=O)[C@H](Cc1c[nH]c2ccccc12)NC(=O)[C@H](CCC(N)=O)NC(=O)[C@@H]1CCCN1C(=O)[C@H](CC(C)C)NC(=O)[C@H](CC(C)C)NC(=O)CCCCCNC(=S)Nc1ccc2c(c1)C(=O)OC21c2ccc(O)cc2Oc2cc(O)ccc21)[C@@H](C)CC)C(=O)N[C@@H](CCCCN)C(=O)N[C@@H](CC(C)C)C(=O)N[C@@H](CC(C)C)C(=O)N[C@@H](CCCNC(=N)N)C(N)=O) [Example 19] | low but still cell penetrating
FITC-6Ahx-MRMIRFRKKIPYLRY-NH2 ({FITC-Ahx}-MRMIRFRKKIPYLRY-NH2; SMILES CC[C@H](C)[C@H](NC(=O)[C@H](CCSC)NC(=O)[C@H](CCCNC(=N)N)NC(=O)[C@H](CCSC)NC(=O)CCCCCNC(=S)Nc1ccc2c(c1)C(=O)OC21c2ccc(O)cc2Oc2cc(O)ccc21)C(=O)N[C@@H](CCCNC(=N)N)C(=O)N[C@@H](Cc1ccccc1)C(=O)N[C@@H](CCCNC(=N)N)C(=O)N[C@@H](CCCCN)C(=O)N[C@@H](CCCCN)C(=O)N[C@H](C(=O)N1CCC[C@H]1C(=O)N[C@@H](Cc1ccc(O)cc1)C(=O)N[C@@H](CC(C)C)C(=O)N[C@@H](CCCNC(=N)N)C(=O)N[C@@H](Cc1ccc(O)cc1)C(N)=O)[C@@H](C)CC) [Example 14] | low but still cell penetrating
FITC-6Ahx-VKIWFQNRRVRWRKR-NH2 ({FITC-Ahx}-VKIWFQNRRVRWRKR-NH2; SMILES CC[C@H](C)[C@H](NC(=O)[C@H](CCCCN)NC(=O)[C@@H](NC(=O)CCCCCNC(=S)Nc1ccc2c(c1)C(=O)OC21c2ccc(O)cc2Oc2cc(O)ccc21)C(C)C)C(=O)N[C@@H](Cc1c[nH]c2ccccc12)C(=O)N[C@@H](Cc1ccccc1)C(=O)N[C@@H](CCC(N)=O)C(=O)N[C@@H](CC(N)=O)C(=O)N[C@@H](CCCNC(=N)N)C(=O)N[C@@H](CCCNC(=N)N)C(=O)N[C@H](C(=O)N[C@@H](CCCNC(=N)N)C(=O)N[C@@H](Cc1c[nH]c2ccccc12)C(=O)N[C@@H](CCCNC(=N)N)C(=O)N[C@@H](CCCCN)C(=O)N[C@@H](CCCNC(=N)N)C(N)=O)C(C)C) [Example 13] | medium
